Experimental findings from publication PMC9870775, “Potent Dual Polymerase/Exonuclease Inhibitory Activities of Antioxidant Aminothiadiazoles Against the COVID-19 Omicron Virus: A Promising In Silico/In Vitro Repositioning Research Study” (Molecular Biotechnology, 2023) are described below.

A short description of this data set: in vitro. The note with it: African green monkey.
On to `Nc1nnc(-c2cnc3cc(Cl)ccc3c2O)s1` [ChloViD2022, 3-(5-amino-1,3,4-thiadiazol-2-yl)-7-chloroquinolin-4-ol], for which the CC50 was more than 100 µM. As to `Nc1nnc(CC(O)(Cc2nnc(N)s2)c2nnc(N)s2)s1` [CoViTris2022, 1,2,3-tris(5-amino-1,3,4-thiadiazol-2-yl)propan-2-ol], the CC50 is more than 100 µM.

On to `CC(C)C(=O)OC[C@H]1O[C@@H](n2ccc(NO)nc2=O)[C@H](O)[C@@H]1O` [Molnupiravir, molnupiravir, reference compound], for which the CC50 is more than 100 µM. Consider `Nc1nnc([C@H](O)[C@@H](O)c2nnc(N)s2)s1` [Taroxaz-26, (1R,2R)-1,2-bis(5-amino-1,3,4-thiadiazol-2-yl)ethane-1,2-diol], for which the CC50 is more than 100 µM.
